Tests used:
mice = assay: Acute toxicity; format: in vivo, mouse; details: 2 g/kg p.o.; for Acute toxicity: abnormal findings: general condition up to 1 week; for Acute toxicity: death: observed up to 1 week
Description: Compound No. 1 and the compound No. 9 were examined.

glomeruli = assay: Effect on nephritis in MRL/lpr mice: histopathological findings of glomeruli; format: in vivo, mouse; details: 10 weeks; for Incidence of glomerular lesions, grade - (no remarkable change): control 1; for Incidence of glomerular lesions, grade 4+ (extremely marked change): control 8, **P < 0.01; for Incidence of glomerular lesions, grade 1+ (slight change): control 14; for Incidence of glomerular lesions, grade 3+ (marked change): control 25; for Incidence of glomerular lesions, grade 2+ (moderate change): control 52
Experimental: (§1) Effect on nephritis in MRL/lpr mice
(§2) The MRL/lpr mouse is a model of lupus nephritis in mice which spontaneously and secondarily develop proliferative glomerulonephritis due to autoimmune disease. Using this nephritis model, a 10-week long-term oral administration experiment with the test drugs was performed.
(§3) MRL/lpr mice purchased from Jackson Laboratory and maintained in Nippon Shinyaku Co., Ltd. were used.
(§4) A suspension of each test drug was administered orally once a day on 6 days per week from the age 8 weeks for 10 weeks. During the administration period, the semi-quantitative test for urinary protein (regent strips) was performed. At the end of the administration period, the animals were sacrificed and the kidneys were removed. The kidney was fixed in 10% phosphate-buffered formalin and, in the routine manner, paraffin sections were prepared and stained with periodic acid-Schiff stain for microscopy. For histopathological evaluation, the glomerular lesions in each tissue preparation were observed by light microscopy and graded according to the method of Berden (J. Immunology, 130, 1699-1705, 1983) and the incidence (%) of each grade was calculated for each group. Statistical analysis was performed by Mann Whitney's rank-sum test.

mesangial cells [1] = assay: Effect on anti-Thy-1 antibody nephritis in rats (number of mesangial cells per glomerulus); format: in vivo, rat; details: 100 mg/kg p.o. once a day for 7 days, n=5, mean ± standard error, **P < 0.01, controls (distilled water): 59.5 ± 3.5 (No. 1), 61.8 ± 2.2 (No. 2), 54.8 ± 2.1 (No. 9), intact animal 43
Experimental: Anti-Thy-1 antibody-induced nephritis is a model of glomerulonephritis constructed by utilizing the reaction between the Thy-1 antigen occurring as a membrane protein of mesangial cells and the antibody to the antigen. In this model, injuries to mesangial cells and lesions associated with mesangial cell proliferation are found.
Preparation of anti-Thy-1 antibody
Preparation of the antibody was carried out in accordance with the method of Ishizaki et al. referred to above. Thus, an adjuvant suspension of rat thymocytes was prepared and subcutaneously administered to rabbits for immunization. After two booster doses, the blood was collected and the serum separated was subjected to inactivation and absorption to provide an antiserum (anti-Thy-1 antibody).
A predetermined amount of the antiserum was injected intravenously from the tail vein of rats to induce nephritis. Starting the following day after injection, a suspension of the test drug was administered orally once a day for 7 days. On day 8 following the beginning of administration, the animals were sacrificed and the kidneys were removed. The kidney was fixed in 10% phosphate-buffered formalin and, in the routine manner, paraffin sections were prepared and stained with periodic acid-schiff stain for microscopy. For histopathological evaluation, the number of cells in the glomeruli (mainly mesangial cells) in each tissue preparation was counted under a light microscope. Statistical analysis was performed by unpaired t-test.

MRL/lpr mice = assay: Effect on nephritis in MRL/lpr mice: incidence of proteinuria; format: in vivo, mouse; details: 10 weeks; for Number of animals with proteinuria, grade 1+ (30-100 mg/dl) / Number of animals with proteinuria, grade - (negative): control 0 of 12; for Number of animals with proteinuria, grade 3+ (300-1000 mg/dl): control 1 of 12; for Number of animals with proteinuria, grade 2+ (100-300 mg/dl): control 4 of 12; for Number of animals with proteinuria, grade 4+ (>1000 mg/dl): control 7 of 12, *P < 0.05
Experimental: as §1, §2, §3, §4

mesangial cells [2] = assay: Inhibitory effect on mesangial cell proliferation in vitro; format: cell-based; details: Rattus norvegicus, 10 μg/ml, 72 hours, LPS-stimulated macrophage culture supernatant, crystal violet, relative to control, read-out: Inhibition rate of mesangial cell proliferation in vitro
Experimental: Inhibitory effect on mesangial cell proliferation in vitro
Glomeruli were isolated from the rat kidney by the sieving method. Mesangial cells were obtained from isolated these glomeruli which were maintained in culture. The mesangial cells were seeded on the plate and, after 24 hours, an LPS (lipopolysaccharide)-stimulated macrophage culture supernatant (a solution containing growth factor) and the test drug were added and the plate was incubated for 72 hours. The mesangial cells were fixed and stained with crystal violet and the absorbance was measured. The inhibitory activity of the mesangial cell proliferation of the test compound was evaluated in relative inhibition rate (%) in comparison with the absorbance of the control obtained under the same culture conditions.

For CC1(C)CC[C@]2(C(=O)O)CC[C@]3(C)C(=CC[C@@H]4[C@@]5(C)CC[C@H](O)[C@@](C)(CO)[C@@H]5CC[C@]43C)[C@@H]2C1 [Compound No. 1, 3β,23-dihydroxyolean-12-en-28-oic acid], the “Acute toxicity: abnormal findings” value (mice) was “nor was there any abnormal findings”, the “Acute toxicity: death” value (mice) was “no death was encountered” and the “Incidence of glomerular lesions, grade - (no remarkable change)” value (glomeruli; 10 mg/kg p.o.) was 3%. The “Incidence of glomerular lesions, grade 4+ (extremely marked change)” value (glomeruli; 10 mg/kg p.o.) was 2%, the “Incidence of glomerular lesions, grade 1+ (slight change)” value (glomeruli; 10 mg/kg p.o.) was 29% and the “Incidence of glomerular lesions, grade 3+ (marked change)” value (glomeruli; 10 mg/kg p.o.) was 9%. The “Incidence of glomerular lesions, grade 2+ (moderate change)” value (glomeruli; 10 mg/kg p.o.) was 57%, the “Incidence of glomerular lesions, grade - (no remarkable change)” value (glomeruli; 30 mg/kg p.o.) was 3% and the “Incidence of glomerular lesions, grade 4+ (extremely marked change)” value (glomeruli; 30 mg/kg p.o.) was 0%. The “Incidence of glomerular lesions, grade 1+ (slight change)” value (glomeruli; 30 mg/kg p.o.) was 25%, the “Incidence of glomerular lesions, grade 3+ (marked change)” value (glomeruli; 30 mg/kg p.o.) was 9% and the “Incidence of glomerular lesions, grade 2+ (moderate change)” value (glomeruli; 30 mg/kg p.o.) was 63%. The “Number of mesangial cells per glomerulus” value (mesangial cells [1]) was 48.2 ± 1.6, the “Number of animals with proteinuria, grade 1+ (30-100 mg/dl)” value (MRL/lpr mice; 10 mg/kg p.o., n=13) was 7 and the “Number of animals with proteinuria, grade - (negative)” value (MRL/lpr mice; 10 mg/kg p.o., n=13) was 0. For the same compound, the “Number of animals with proteinuria, grade 3+ (300-1000 mg/dl)” value (MRL/lpr mice; 10 mg/kg p.o., n=13) was 1, the “Number of animals with proteinuria, grade 2+ (100-300 mg/dl)” value (MRL/lpr mice; 10 mg/kg p.o., n=13) was 2 and the “Number of animals with proteinuria, grade 4+ (>1000 mg/dl)” value (MRL/lpr mice; 10 mg/kg p.o., n=13) was 3. For the same compound, the “Number of animals with proteinuria, grade 1+ (30-100 mg/dl)” value (MRL/lpr mice; 30 mg/kg p.o., n=14) was 4, the “Number of animals with proteinuria, grade - (negative)” value (MRL/lpr mice; 30 mg/kg p.o., n=14) was 3 and the “Number of animals with proteinuria, grade 3+ (300-1000 mg/dl)” value (MRL/lpr mice; 30 mg/kg p.o., n=14) was 5. For the same compound, the “Number of animals with proteinuria, grade 2+ (100-300 mg/dl)” value (MRL/lpr mice; 30 mg/kg p.o., n=14) was 0 and the “Number of animals with proteinuria, grade 4+ (>1000 mg/dl)” value (MRL/lpr mice; 30 mg/kg p.o., n=14) was 2.

For CC(=O)OCCOC(=O)[C@]12CCC(C)(C)C[C@H]1C1=CC[C@@H]3[C@@]4(C)CC[C@H](O)[C@@](C)(CO)[C@@H]4CC[C@@]3(C)[C@]1(C)CC2 [Compound No. 2, 2-Acetoxyethyl 3β,23(4α)-dihydroxyolean-12-en-28-oate], the inhibition at 10 µg/mL (mesangial cells [2]) was 57.9% and the “Number of mesangial cells per glomerulus” value (mesangial cells [1]) was 50.9 ± 1.3.

With COCCNC(=O)[C@]12CCC(C)(C)C[C@H]1C1=CC[C@@H]3[C@@]4(C)CC[C@H](O)[C@@](C)(CO)[C@@H]4CC[C@@]3(C)[C@]1(C)CC2 [Compound No. 9, N-(2-methoxyethyl)-3β,23(4α)-dihydroxyolean-12-en-28-amide] the “Acute toxicity: abnormal findings” value (mice) was “nor was there any abnormal findings”, the “Acute toxicity: death” value (mice) was “no death was encountered” and the inhibition at 10 µg/mL (mesangial cells [2]) was 43.3%. For the same compound, the “Number of mesangial cells per glomerulus” value (mesangial cells [1]) was 45.8 ± 0.7.

Reference: patent publication US5885992A, “Triterpene derivative and medicinal composition” (Nippon Shinyaku Company, Limited, priority 1994, dated 1999)
